Data as given in patent US20100129800A1, “POLYMERS AND THEIR USE AS FLUORESCENT LABELS” (priority 2007, published 2010).

Assay: Fluorescence properties of the new compounds (excitation and emission wavelengths)
Type: physicochemical
Settings: free compound

| Fluorescence Excitation (nm) | Fluorescence emission (nm) | SMILES |
| --- | --- | --- |
| 346 | 402 | CC(O)C(CO)NC(=O)c1c2ccccc2nc2c1[nH]c1ccccc12 (centres unmarked) [Compound 2a, N-(1,3-dihydroxybutan-2-yl)-10H-indolo[3,2-d]quinoline-11-carboxamide] |
| 358 | 439 | CC(O)C(CO)NC(=O)c1c2ccccc2nc2ccccc12 (centres unmarked) [Compound 2b, N-(1,3-dihydroxybutan-2-yl)acridine-9-carboxamide] |
| 247 | 440 | CC(O)C(CO)NC(=O)CNC(=O)c1c2ccccc2nc2ccccc12 (centres unmarked) [Compound 2d, N-((1,3-dihydroxybutan-2-ylcarbamoyl)methyl)acridine-9-carboxamide] |
| 326 | 377 | C[C@@H](O)[C@H](CO)NC(=O)c1cc(-c2ccccc2)nc2ccccc12 [Compound 2e, N-((2S, 3R)-1,3-dihydroxybutan-2-yl)-2-phenylquinoline-4-carboxamide] |
| 346 | 495 | CC(O)C(COP(=O)(O)OC(C)C(CO)NC(=O)c1c2ccccc2nc2c1[nH]c1ccccc12)NC(=O)c1c2ccccc2nc2c1[nH]c1ccccc12 (centres unmarked) [Example 28, O-{2-N-(10H-indolo[3,2-d]quinoline-11-carbamoyl)-(1-hydroxybut-3-yl)} and O-(2-N-{10H-indolo[3,2-d]quinoline-11-carbamoyl}-3-hydroxybut-1-yl)phosphate] |
| 359 | 440 | NC(=O)CCCOP(=O)(O)O[C@H](CNc1c2ccccc2nc2ccccc12)COP(=O)(O)O[C@@H](CO)CNc1c2ccccc2nc2ccccc12 [Example 33, O-[(R)-3-(Acridin-9-ylamino)-1-hydroxy-propane-2-yl]-phosphate (2-1) O-{2-N-(acridine-9-ylamino)-2-oxyprop-1-yl} phosphate(2-4) 4-hydroxybutirame] |

The remaining lines, values behind:

| SMILES | Fluorescence Excitation (nm) | Fluorescence emission (nm) |
| --- | --- | --- |
| C[C@@H](O)[C@H](CO)NC(=O)CN1c2ccccc2C=C2C3C=CC=CC3=NC21 (stereo partly drawn) [Compound 2f, N-((2S, 3R)-1,3-dihydroxybutan-2-yl)-(4a, 10a-dihydro-10,11-diazabenzo[b]fluoren-10-yl)acetamide] | 261 | 456 |
| OC[C@H](O)CNc1c2ccccc2nc2ccccc12 [Compound 5a, (R)-3-(Acridin-9-ylamino)propane-1,2-diol] | 433 | – |
| Cn1c2c3ccccc3nc-2c(NC[C@H](O)CO)c2ccccc21 [Compound 5b, (S)-3-(5-Methyl-5H-indolo[3,2b]quinolin-11-ylamino)propane-1,2-diol] | 340 | 469 |
| CC(OP(=O)(O)OCC(O)CNc1c2nc3ccccc3c-2n(C)c2ccccc12)C(CO)NC(=O)c1c2ccccc2nc2ccccc12 [Example 31, O-{2-N-(Acridine-9-carbamoyl)-(1-hydroxybut-3-yl)} and O-{3-(5-methyl-5H-indolo[3,2b]quinolin-11-ylamino-(S)-(2-hydroxyprop-3-yl} phosphate] | 353 | 441 |
| CC(OP(O)(=S)OC[C@@H](O)CNc1c2nc3ccccc3c-2n(C)c2ccccc12)C(CO)NC(=O)c1c2ccccc2nc2ccccc12 (stereo partly drawn) [Example 32, O-{2-N-(Acridine-9-carbamoyl)-(1-hydroxybut-3-yl)} and O-}3-(5-methyl-5H-indolo[3,2b]quinolin-11-ylamino-(S)-(2-hydroxyprop-3-yl} phosphorotioate] | 359 | 448 |
| CC(O)C(COP(=O)(O)OC(C)C(CO)NC(=O)c1cc(-c2ccccc2)nc2ccccc12)NC(=O)c1c2ccccc2nc2ccccc12 (centres unmarked) [Example 34, O-{2-N-(2-phenylquinoline-4-carbamoyl-1-hydroxybutan-3-yl)} and O-{2-N-(acridine-9-carbamoyl)-3-hydroxybut-1-yl} phosphate] | 252 | 437 |
